From patent publication US8202865B2, “Oxadiazole derivatives” (Merck Serono SA, priority 2007, dated 2012)
Structures can show the parent of a compound that is named as a salt.

Assays:
S1P1 [1] = target: T1, S1P1 (Homo sapiens, UniProt P21453); assay: 35S-GTPγS binding, S1P1 membranes; assay type: biochemical; conditions: membranes from CHO cells expressing S1P1; 60 min 30° C.
T1 construct: expressed in transfected cells; host or cells: CHO cells (membranes)
In short: (§1)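 CHO-cell membranes expressing S1P1 or S1P3 (1-10 μg) incubated with compounds in 20 mM HEPES pH 7.4, 10 mM MgCl2, 140 mM NaCl, saponin, 0.2% BSA, 1.7 μM GDP and [35S]-GTPγS (20 μl of 1.5 nM added), 60 min at 30° C. Bound radioactivity expressed as % of S1P activation.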

S1P1 [2] = target: T1, S1P1; assay: Receptor binding assay, [33P]sphingosine 1-phosphate, membranes, WGA SPA beads; conditions: membranes from CHO cells expressing S1P1; 25 pM [33P]S1P; 60 min RT
In short: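 CHO-cell membranes expressing S1P1 incubated with 25 pM [33P]S1P in 50 mM HEPES pH 7.5, 5 mM MgCl2, 100 mM NaCl, 0.4% fatty acid-free BSA with WGA SPA beads for 60 min at RT. Bound radioactivity counted by scintillation proximity; specific binding defined using 1000-fold excess unlabeled S1P.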

S1P3 = target: T2, S1P3 (Homo sapiens, UniProt Q99500); assay: 35S-GTPγS binding, S1P3 membranes; assay type: biochemical; conditions: membranes from CHO cells expressing S1P3; 60 min 30° C.
T2 construct: expressed in transfected cells; host or cells: CHO cells (membranes)
T2 sequence (Q99500 whole entry, species assumed): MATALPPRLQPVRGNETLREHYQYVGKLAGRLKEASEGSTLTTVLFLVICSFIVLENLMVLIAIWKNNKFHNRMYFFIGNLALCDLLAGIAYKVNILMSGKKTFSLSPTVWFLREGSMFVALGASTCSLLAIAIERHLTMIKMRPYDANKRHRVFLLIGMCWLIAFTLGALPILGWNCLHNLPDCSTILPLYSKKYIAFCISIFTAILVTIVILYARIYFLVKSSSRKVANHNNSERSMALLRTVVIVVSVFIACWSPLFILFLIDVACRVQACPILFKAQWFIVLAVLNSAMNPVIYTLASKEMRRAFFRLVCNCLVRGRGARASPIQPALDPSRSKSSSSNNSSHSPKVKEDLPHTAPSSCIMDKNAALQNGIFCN
In short: as §1

T1 sequence (P21453 whole entry, species assumed): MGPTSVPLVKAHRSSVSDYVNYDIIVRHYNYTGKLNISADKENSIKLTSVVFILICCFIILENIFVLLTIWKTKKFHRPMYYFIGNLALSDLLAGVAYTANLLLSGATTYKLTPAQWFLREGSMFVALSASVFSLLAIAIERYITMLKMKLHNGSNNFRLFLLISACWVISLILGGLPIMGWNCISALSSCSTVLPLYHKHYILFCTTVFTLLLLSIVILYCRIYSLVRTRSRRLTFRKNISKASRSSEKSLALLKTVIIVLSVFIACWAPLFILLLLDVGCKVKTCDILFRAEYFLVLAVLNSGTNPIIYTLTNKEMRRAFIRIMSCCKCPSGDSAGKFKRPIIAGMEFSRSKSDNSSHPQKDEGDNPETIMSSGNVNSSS

| EC50 (S1P1 [1]) [nM] | Ki (S1P1 [2]) [nM] | EC50 (S1P3) [nM] | Structure (SMILES) |
| --- | --- | --- | --- |
| 1.5 | 2 | 754 | CCc1ccccc1-c1ccc(-c2nc(-c3ccc(F)c(CN(C)CC(=O)O)c3)no2)cc1COC [Example 147, N-(5-{5-[2′-ethyl-2-(methoxymethyl)biphenyl-4-yl]-1,2,4-oxadiazol-3-yl}-2-fluorobenzyl)-N-methylglycine, Hydrochloride salt] |
| 4 | 0.7 | 2350 | COCc1cc(-c2nc(-c3cccc(CN(C)CC(=O)O)c3)no2)ccc1OC(C)C [Example 148, N-(3-{5-[4-isopropoxy-3-(methoxymethyl)phenyl]-1,2,4-oxadiazol-3-yl}benzyl)-N-methylglycine, Hydrochloride salt] |
| 0.5 | 0.3 | 95 | COCc1cc(-c2nc(-c3cccc(CN(C)CCC(=O)O)c3)no2)ccc1-c1ccccc1C [Example 150, N-(3-{5-[2-(methoxymethyl)-2′-methylbiphenyl-4-yl]-1,2,4-oxadiazol-3-yl}benzyl)-N-methyl-beta-alanine] |
| 4.8 | 6.5 | 175 | COCc1cc(-c2nc(-c3cccc(CNC4(C(=O)O)CC4)c3)no2)ccc1-c1ccccc1C [Example 151, 1-[(3-{5-[2-(methoxymethyl)-2′-methylbiphenyl-4-yl]-1,2,4-oxadiazol-3-yl}benzyl)amino]cyclopropanecarboxylic acid] |
| 14 | 11 | 219 | COCc1cc(-c2nc(-c3ccc(OCC(=O)O)c(F)c3)no2)ccc1-c1ccccc1C [Example 166, (2-fluoro-{5-[2-(methoxymethyl)-2′-methylbiphenyl-4-yl]-1,2,4-oxadiazol-3-yl}phenoxy)acetic acid] |
| 0.7 | 0.8 | 214 | COCc1cc(-c2nc(-c3cccc(S(N)(=O)=O)c3)no2)ccc1-c1ccccc1C [Example 170, 3-{5-[2-(methoxymethyl)-2′-methylbiphenyl-4-yl]-1,2,4-oxadiazol-3-yl}benzenesulfonamide] |
| 19 | 39 | > 20000 | Cc1ccccc1-c1ccc(-c2nc(-c3ccc(C(N)=O)c(F)c3)no2)cc1C [Example 171, 4-[5-(2,2′-dimethylbiphenyl-4-yl)-1,2,4-oxadiazol-3-yl]-2-fluorobenzamide] |
| 17 | 3.4 | 1420 | COCc1cc(-c2nc(-c3ccc(C(=O)NCCNC(C)=O)c(F)c3)no2)ccc1-c1ccccc1C [Example 174, N-[2-(acetylamino)ethyl]-2-fluoro-4-{5-[2-(methoxymethyl)-2′-methylbiphenyl-4-yl]-1,2,4-oxadiazol-3-yl}benzamide] |
| 1.3 | 2 | 1150 | COCc1cc(-c2nc(-c3ccc(C(=O)NCCc4nnn[nH]4)c(F)c3)no2)ccc1-c1ccccc1C [Example 177, 2-fluoro-4-{5-[2-(methoxymethyl)-2′-methylbiphenyl-4-yl]-1,2,4-oxadiazol-3-yl}-N-[2-(1H-tetrazol-5-yl)ethyl]benzamide] |
| 4.8 | 1 | 141 | COCc1cc(-c2nc(-c3ccc(C(N)=O)cc3)no2)ccc1-c1ccccc1C [Example 178, 4-{5-[2-(methoxymethyl)-2′-methylbiphenyl-4-yl]-1,2,4-oxadiazol-3-yl}benzamide] |
| 8 | 3 | 274 | COCc1cc(-c2nc(-c3ccc(C(N)=O)c(F)c3)no2)ccc1-c1ccccc1C [Example 179, 2-fluoro-4-{5-[2-(methoxymethyl)-2′-methylbiphenyl-4-yl]-1,2,4-oxadiazol-3-yl}benzamide] |
| 2.4 | 2 | 5600 | COCc1cc(-c2nc(-c3cccc(C(=O)NCCC#N)c3)no2)ccc1-c1ccccc1C [Example 183, N-(2-cyanoethyl)-3-{5-[2-(methoxymethyl)-2′-methylbiphenyl-4-yl]-1,2,4-oxadiazol-3-yl}benzamide] |
